The numbers were not newly measured in article PMC2714898 (European Journal of Clinical Pharmacology, 2009), which cites them from elsewhere.

Consider `CCNCc1cc(Nc2ccnc3cc(Cl)ccc23)ccc1O` [Desethylamodiaquine (DEAQ), N-desethylamodiaquine], for which the half-life is 60 to 437 h.

Consider `C[C@H]1[C@@H](O)O[C@@H]2O[C@@]3(C)CC[C@H]4[C@H](C)CC[C@@H]1[C@@]24OO3` [Dihydroartemisinin (DHA), dihydroartemisinin], for which the “elimination half-life (t½)” value (averages, after oral AS) was 0.65 to 2.59 h.

By half-life is commonly meant the time in which the quantity being followed falls by half.
